In patent US12427157B2, “Methods for treatment of diseases involving acidic or hypoxic diseased tissues” (Cybrexa 1, Inc., priority 2018, dated 2025):
Residues, ends and D or L forms follow the SMILES beside them. *: point of attachment. X7 = C[C@@H](COC(=O)NCN1c2cc(F)cc3c(=O)[nH]nc(c23)[C@H](c2ncnn2C)[C@H]1c1ccc(F)cc1)S*

What was measured:
DLD-1 BRCA2−/− cells = assay: Growth delay assay; type: cell-based, Human; settings: pH 7.4, BRCA (−/−) DLD-1, 96 h
Experimental: Cells were plated in 96 well black walled-clear bottom plates (Griener), DLD-1 WT cells at 2500 cells per well, DLD-1 BRCA2−/− at 5000 cells per well, in growth media containing 10% FBS. Cells were allowed to adhere at room temperature for 60 minutes before returning to a 37 C, 5% CO2 incubator. After 24 hours, media was removed and replaced with fresh growth media containing various drug concentrations. Each drug concentration was added in triplicate. Non-drug treated controls contained growth media only. Cells were returned to the incubator. Ninety-six hours after addition of drug, cells were fixed with 4% paraformaldehyde for 20 minutes and stained with Hoechst at 1 ug/mL. The plates were imaged on a Cytation 5 auto imager (BioTek) and cells were counted using CellProfiler (http://cellprofiler.org). The percent cell growth delay was calculated and data plotted using GraphPad Prism.

PARP = PARP (Homo sapiens, UniProt P09874); assay: Enzymatic Assay 2: HT Universal Chemiluminescent PARP Assay of cleaved compounds; settings: read-out: IC50 Enzymatic Assay 2; Examples cleaved per Example A (crude cleavage solution); R^8H starting materials as such;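 note: PARP reaction with activated DNA run 1 h at room temperature, product detected via streptavidin-HRP and luminescence endpoint reading on a plate reader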
Chain of PARP (P09874 whole entry): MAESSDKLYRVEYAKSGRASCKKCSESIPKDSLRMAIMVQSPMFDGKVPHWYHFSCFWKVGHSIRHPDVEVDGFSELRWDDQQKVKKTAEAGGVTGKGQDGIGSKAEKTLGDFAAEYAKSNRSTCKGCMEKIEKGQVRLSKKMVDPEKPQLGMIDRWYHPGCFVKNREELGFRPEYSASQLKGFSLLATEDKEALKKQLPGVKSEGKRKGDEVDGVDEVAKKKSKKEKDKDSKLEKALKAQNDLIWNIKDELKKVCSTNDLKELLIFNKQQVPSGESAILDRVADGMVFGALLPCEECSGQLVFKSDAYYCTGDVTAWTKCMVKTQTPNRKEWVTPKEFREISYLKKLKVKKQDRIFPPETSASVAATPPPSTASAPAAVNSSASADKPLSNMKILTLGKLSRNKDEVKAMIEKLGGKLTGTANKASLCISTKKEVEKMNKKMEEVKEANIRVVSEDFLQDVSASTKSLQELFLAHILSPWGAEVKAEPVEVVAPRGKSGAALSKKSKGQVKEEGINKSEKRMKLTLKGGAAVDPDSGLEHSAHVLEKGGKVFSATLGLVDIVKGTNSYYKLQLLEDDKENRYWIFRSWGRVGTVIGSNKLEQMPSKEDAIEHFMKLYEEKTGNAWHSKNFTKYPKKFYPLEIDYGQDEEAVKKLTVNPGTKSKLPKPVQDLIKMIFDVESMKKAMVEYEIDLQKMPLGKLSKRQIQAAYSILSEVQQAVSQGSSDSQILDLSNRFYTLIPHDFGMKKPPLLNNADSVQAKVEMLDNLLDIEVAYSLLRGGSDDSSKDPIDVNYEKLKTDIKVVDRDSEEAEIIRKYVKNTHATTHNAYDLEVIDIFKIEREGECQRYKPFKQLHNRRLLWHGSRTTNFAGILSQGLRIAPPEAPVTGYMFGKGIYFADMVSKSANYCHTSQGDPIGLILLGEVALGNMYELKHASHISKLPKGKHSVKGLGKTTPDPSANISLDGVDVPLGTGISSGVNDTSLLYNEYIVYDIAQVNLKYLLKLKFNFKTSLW
Experimental: An equal volume of 1×PARP cocktail containing activated DNA was added to each well and the reaction was incubated for one hour at room temperature. The wells were washed twice with 1×PBS+0.1% Triton X-100 and twice with PBS. 50 ul/well of diluted streptavidin-HRP was added and the wells were incubated for one hour at room temperature. The wells were washed twice with 1×PBS+0.1% Triton X-100 and washed twice with PBS. The liquid was 5 removed, 100 ul/well 1:1 PeroxyGlow A/PeroxyGlow B was added and the chemiluminescent readings were measured on a BioTek Cytation 5 plate reader using the luminescence fiber endpoint.

Structure (SMILES) | IC50 (DLD-1 BRCA2−/− cells) [nM] | IC50 (PARP) [nM]
CC(C)C[C@H](NC(=O)[C@H](Cc1ccc(O)cc1)NC(=O)[C@H](C)NC(=O)[C@H](CCCNC(=N)N)NC(=O)[C@H](Cc1c[nH]c2ccccc12)NC(=O)[C@@H]1CCCN1C(=O)[C@H](CC(N)=O)NC(=O)[C@H](CCC(N)=O)NC(=O)[C@H](CC(=O)O)NC(=O)[C@H](CC(=O)O)NC(=O)[C@H](C)N)C(=O)N[C@@H](CC(=O)O)C(=O)N[C@@H](CC(C)C)C(=O)N[C@@H](CC(C)C)C(=O)N[C@@H](Cc1ccccc1)C(=O)N1CCC[C@H]1C(=O)N[C@H](C(=O)N[C@@H](CC(=O)O)C(=O)N[C@H](C(=O)N[C@@H](CC(C)C)C(=O)N[C@@H](CC(C)C)C(=O)N[C@@H](CC(C)C)C(=O)N[C@@H](CC(=O)O)C(=O)N[C@@H](CC(C)C)C(=O)N[C@@H](CC(C)C)C(=O)N[C@@H](Cc1c[nH]c2ccccc12)C(=O)N[C@@H](CC(=O)O)C(=O)N[C@@H](C)C(=O)N[C@@H](CC(=O)O)C(=O)N[C@@H](CCC(=O)O)C(=O)N[C@@H](CSS[C@H](C)COC(=O)NCN1c2cc(F)cc3c(=O)[nH]nc(c23)[C@H](c2ncnn2C)[C@H]1c1ccc(F)cc1)C(=O)NCC(=O)O)[C@@H](C)O)[C@@H](C)O [Example 41] | 43 | 1.9
CC(C)C[C@H](NC(=O)[C@H](Cc1ccc(O)cc1)NC(=O)[C@H](C)NC(=O)[C@H](CCCNC(=N)N)NC(=O)[C@H](Cc1c[nH]c2ccccc12)NC(=O)[C@@H]1CCCN1C(=O)[C@H](CC(N)=O)NC(=O)[C@H](CCC(N)=O)NC(=O)[C@H](CC(=O)O)NC(=O)[C@H](CC(=O)O)NC(=O)[C@H](C)N)C(=O)N[C@@H](CC(=O)O)C(=O)N[C@@H](CC(C)C)C(=O)N[C@@H](CC(C)C)C(=O)N[C@@H](Cc1ccccc1)C(=O)N1CCC[C@H]1C(=O)N[C@H](C(=O)N[C@@H](CC(=O)O)C(=O)N[C@H](C(=O)N[C@@H](CC(C)C)C(=O)N[C@@H](CC(C)C)C(=O)N[C@@H](CC(C)C)C(=O)N[C@@H](CC(=O)O)C(=O)N[C@@H](CC(C)C)C(=O)N[C@@H](CC(C)C)C(=O)N[C@@H](Cc1c[nH]c2ccccc12)C(=O)N[C@@H](CC(=O)O)C(=O)N[C@@H](C)C(=O)N[C@@H](CC(=O)O)C(=O)N[C@@H](CCC(=O)O)C(=O)N[C@@H](CSSCCOC(=O)NCN1c2cc(F)cc3c(=O)[nH]nc(c23)[C@H](c2ncnn2C)[C@H]1c1ccc(F)cc1)C(=O)NCC(=O)O)[C@@H](C)O)[C@@H](C)O [Example 17] | 50 | 0.41
CC[C@H](C)[C@H](NC(=O)[C@@H]1CCCN1C(=O)[C@H](CC(N)=O)NC(=O)[C@H](CCC(N)=O)NC(=O)[C@H](CCC(=O)O)NC(=O)[C@H](C)N)C(=O)N[C@@H](Cc1ccc(O)cc1)C(=O)N[C@@H](Cc1c[nH]c2ccccc12)C(=O)N[C@@H](C)C(=O)N[C@@H](CCCNC(=N)N)C(=O)N[C@@H](Cc1ccc(O)cc1)C(=O)N[C@@H](C)C(=O)N[C@@H](CC(=O)O)C(=O)N[C@@H](Cc1c[nH]c2ccccc12)C(=O)N[C@@H](CC(C)C)C(=O)N[C@@H](Cc1ccccc1)C(=O)N[C@H](C(=O)N[C@H](C(=O)N1CCC[C@H]1C(=O)N[C@@H](CC(C)C)C(=O)N[C@@H](CC(C)C)C(=O)N[C@@H](CC(C)C)C(=O)N[C@@H](CC(C)C)C(=O)N[C@@H](CC(=O)O)C(=O)N[C@@H](CC(C)C)C(=O)N[C@@H](C)C(=O)N[C@@H](CC(C)C)C(=O)N[C@@H](CC(C)C)C(=O)N[C@H](C(=O)N[C@@H](CC(=O)O)C(=O)N[C@@H](C)C(=O)N[C@@H](CC(=O)O)C(=O)N[C@@H](CCC(=O)O)C(=O)N[C@@H](CSS[C@@H](C)COC(=O)NCN1c2cc(F)cc3c(=O)[nH]nc(c23)[C@H](c2ncnn2C)[C@H]1c1ccc(F)cc1)C(=O)NCC(=O)O)C(C)C)[C@@H](C)O)[C@@H](C)O [Example 13] (H-AEQNPIYWARYADWLFTTPLLLLDLALLVDADEC(X7)G-OH; N-terminus and C-terminus assumed) | 51 | 1
